In the NIST ThermoML archive (doi:10.1016/j.fluid.2014.10.037):
Values joined by “and” are separate entries in the source; they are usually repeats but may differ in a detail not shown here. Identical values can stand only once. Numbers after ± are expanded uncertainties.

Conditions: Liquid, Closed cell (Static) method

O=Cc1ccco1 [2-furaldehyde]
Conditions	vapor or sublimation pressure [kPa]
353.2 K	5.9 ± 0.1
373.4 K	13.6 ± 0.2
408 K	46.3 ± 0.2

OCc1ccco1 [2-hydroxymethylfuran]
Conditions	vapor or sublimation pressure [kPa]
353.3 K	2.6 ± 0.1
373 K	7 ± 0.1
407.9 K	30.1 ± 0.2

Cc1ccco1 [2-methylfuran]
Conditions	vapor or sublimation pressure
353.8 K	161.8 ± 1.2 kPa and 162.6 ± 1.1 kPa
357.5 K	181.5 ± 1.3 kPa and 181.7 ± 1.3 kPa
358.3 K	186.5 ± 1.3 kPa
362.4 K	210.5 ± 1.4 kPa
362.5 K	211.1 ± 1.4 kPa
363.1 K	214.9 ± 1.4 kPa
367.2 K	242.1 ± 1.3 kPa
367.4 K	242.7 ± 1.5 kPa
367.9 K	246 ± 1.5 kPa
373.4 K	285.3 ± 1.5 kPa
373.6 K	286.4 ± 1.5 kPa
373.9 K	288.4 ± 1.5 kPa
398.2 K	527.6 ± 2.5 kPa
398.4 K	530.3 ± 2.2 kPa
398.8 K	533.8 ± 2.3 kPa
403 K	587.6 ± 3.5 kPa
403.2 K	591.7 ± 3.2 kPa
403.3 K	592.3 ± 3.5 kPa
408.4 K	667.2 ± 3.6 kPa
408.6 K	670.2 ± 3.7 kPa
409 K	676.7 ± 3.7 kPa

c1ccoc1 [furan]
Conditions	vapor or sublimation pressure [kPa]
353.4 K	455.1 ± 3.1
373.1 K	735.6 ± 4.4
407.9 K	1513.3 ± 6

CC(C)O [propan-2-ol]
Conditions	vapor or sublimation pressure [kPa]
353.3 K	93.8 ± 1.1
373.5 K	200.1 ± 1.9
408.3 K	593.8 ± 2.7
